In BindingDB's records for doi:10.1021/jm300804e (National Institute of Allergy and Infectious Diseases, 2012):

Experiments:
[1] = Inhibition of Bacillus anthracis Protective antigen-mediated cytotoxicity in RAW264.7 cells compound co-treated for 5 hrs with antigen by MTT assay in presence of lethal factor
[2] = Inhibition of Bacillus anthracis Protective antigen-mediated cytotoxicity in HT1080 cells compound co-treated for 5 hrs with antigen measured after 48 hrs by MTT assay in presence of FP59
[3] = Inhibition of Bacillus anthracis Protective antigen-mediated cytotoxicity in RAW264.7 cells compound co-treated for 5 hrs with antigen measured after 48 hrs by MTT assay in presence of FP59
[4] = Inhibition of matrix metalloprotease activated Bacillus anthracis Protective antigen-mediated cytotoxicity in HT1080 cells compound co-treated for 5 hrs with antigen measured after 48 hrs by MTT assay in presence of FP59

Row | SMILES | EC50 [1] | EC50 [2] | EC50 [3] | EC50 [4]
1 | NC(=O)c1ccccc1NC(=O)c1ccc(C(=O)Nc2ccccc2C(N)=O)cc1 | 3000 nM | 1000 nM | 1000 nM | 1000 nM
2 | Oc1ccccc1/C=N/c1ccc(Cc2ccc(/N=C/c3ccccc3O)c(O)c2)cc1O | 3000 nM | 1000 nM | 1000 nM | 1000 nM
